The values below come from US20070298111A1, “Fine Particle-Containing Composition and Manufacturing Method Therefor” (EISAI R&D MANAGEMENT CO., LTD., priority 2004, published 2007).

Data set [1] can be described thus: Solubility of glibenclamide in the presence of both α-CD and SDS. It counts as physicochemical. As to conditions: 3 days at room temperature. As for the experimental part: To an aqueous solution (4 mL) containing α-CD and SDS was added glibenclamide (20 mg), which was stirred for 3 days at room temperature. This solution was filtered using a Millex-HV filter (Millipore) with a pore size of 0.45 μm, and the glibenclamide concentration in the filtrate was measured by HPLC using a Unison UK-C18 column (Imtakt).

For data set [2] the following is noted: pharmacopoeia term; cited from earlier work.

As for `COc1ccc(Cl)cc1C(=O)NCCc1ccc(S(=O)(=O)NC(=O)NC2CCCCC2)cc1` [glibenclamide, 4-[2-(5-Chloro-2-methoxybenzoylamino)ethyl](N-cyclohexylcarbamoyl)benzene-sulfonaide], the “Solubility of glibenclamide relative to SDS concentration (FIG. 6)” value in data set [1] (α-CD added) is reported as “a bending point appeared indicating minimum solubility”; in data set [1] (α-CD concentration 0.0 mM), “solubility rose as the SDS concentration rose”. Moreover, in data set [2], the Solubility in water result is given as “practically insoluble in water”. Turning to `Cc1cccc(Nc2ccccc2C(=O)O)c1C` [mefenamic acid, 2-(2,3-dimethylphenylamino)benzoic acid], in data set [2], the Solubility in water entry was “practically insoluble in water”. For the molecule `CC(=O)S[C@@H]1CC2=CC(=O)CC[C@]2(C)[C@H]2CC[C@@]3(C)[C@@H](CC[C@@]34CCC(=O)O4)[C@H]12` [spironolactone, 7α-acetylsulfanyl-3-oxo-17α-pregn-4-ene-21,17β-carbolactone], the Solubility in water result in data set [2] is on record as “practically insoluble in water”.
